From patent US5089623A, “Certain imidate insecticides” (Imperial Chemical Industries Plc, priority 1990, dated 1992)

Tests used:
Format in all cases: in vivo
[1] = system: Housefly [Musca domestica]; assay: Housefly insecticidal test (HF); conditions: per 25 female houseflies, 48 hours
[2] = system: Tobacco Budworm [Heliothis virescens (Fabricius)]; assay: Tobacco budworm contact test (TBW-C); conditions: second-instar larvae, 5 days, percent in solution
Method: The compounds in Tables 1 and 2 above were tested for insecticidal activity using the following testing procedures. LC50 values, based on the results of these tests and calculated according to dosage-mortality curves, are expressed in Table 3.
Tobacco Budworm [Heliothis virescens (Fabricius)]
(a) Contact: Test compounds were diluted in a 50-50 acetonewater solution. Cotton (Gossypium sp.) cotyledons were immersed in the test solutions for 2-3 seconds and placed on a wire screen to dry. The dried leaves were placed in petri dishes containing a moistened piece of filter paper and infested with 5 second-instar tobacco budworm larvae. The dishes were placed in a high humidity chamber for 5 days, and percent mortality of the larvae recorded. Test concentrations ranged from 0.1% downward. The LC-50 values are expressed below in Table 3 under the heading "TBW-C" in terms of percent of the test compound in the solution.

[3] = system: Tobacco Budworm [Heliothis virescens (Fabricius)] eggs; assay: Tobacco budworm egg test (TBW-E); conditions: percent in solution
[4] = system: Cabbage Looper [Trichoplusia ni (Hubner)]; assay: Cabbage looper test (CL); conditions: second-instar larvae, 3-5 days, percent in solution
[5] = system: Aster Leafhopper [Macrosteles fascifrens (Stal)]; assay: Aster leafhopper test (LH); conditions: adults/nymphs, 48 hours, percent in solution
[6] = system: Maize weevil [Sitophilus Zeamais (Motschulsky)]; assay: Maize weevil test (MW); conditions: adult weevils, treated corn seeds, 48 hours, percent in solution
Summary of the method: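 Adult weevils (10) were placed with four corn seeds that had been dipped 2-3 s in compound dissolved in 50:50 acetone:water, then dried, and held at about 25° C. Mortality was scored at 48 h. LC50 was taken from dosage-mortality curves and expressed as percent compound in solution, from a 0.01% top concentration.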

| SMILES | LC50 HF [1] [µg] | LC50 TBW C [2] [%] | LC50 TBW E [3] [%] | LC50 CL [4] [%] | LC50 LH [5] [%] | LC50 MW [6] [%] |
| --- | --- | --- | --- | --- | --- | --- |
| COc1ccc(N=C(OCc2cccc(Oc3ccccc3)c2)C(C)C)cc1Cl [Compound 95] | 10 | 0.004 | 0.025 | 0.0025 | – | – |
| CC(C)C(=Nc1c(F)c(F)c(F)c(F)c1F)OCc1cccc(Oc2ccccc2)c1 [Compound 51] | 25 | 0.0025 | 0.067 | 0.001 | 0.001 | – |
| CC(C)C(=Nc1ccc(F)c(Cl)c1)OCc1cccc(Oc2ccc(F)c(F)c2)n1 [Compound 531] | 5 | 0.00037 | > 0.1 | > 0.1 | > 0.05 | > 0.01 |
| ClC(Cl)C(=Nc1ccccc1)OCc1cccc(Oc2ccccc2)c1 [Compound 41] | 4.5 | 0.0035 | 0.04 | 0.015 | – | – |
| CC(C)(C)C(=Nc1ccc(F)c(Cl)c1)OCc1cccc(Oc2ccc(F)cc2)c1 [Compound 204] | > 100 | 0.004 | > 0.1 | 0.0023 | – | > 0.01 |
| CC(C)C(=Nc1ccc(Cl)c(Cl)c1)OCc1cccc(Oc2ccc(F)cc2)c1 [Compound 37] | 21 | 0.0005 | 0.014 | 0.0004 | 0.002 | 0.009 |
| CC(C)C(=Nc1cccc(C(F)(F)F)c1)OCc1ccc(F)c(Oc2ccc(Cl)cc2)c1 [Compound 266] | 10 | 0.0007 | 0.06 | 0.00016 | – | – |
| CC(C)C(=Nc1ccc(F)c(C(F)(F)F)c1)OCc1cccc(Oc2ccc(F)cc2)c1 [Compound 120] | 14 | 0.0025 | 0.04 | 0.00015 | 0.0003 | > 0.01 |
| CC(=O)c1ccc(N=C(OCc2cccc(Oc3ccccc3)c2)C(C)C)cc1 [Compound 147] | 10 | 0.0075 | > 0.1 | 0.01 | – | – |
| CC(C)C(=Nc1ccc(F)cc1F)OCc1cccc(Oc2ccc(F)cc2)c1 [Compound 209] | 17 | 0.005 | 0.1 | 0.0007 | 0.001 | > 0.01 |
| Fc1ccc(N=C(OCc2cccc(Oc3ccccc3)c2)C(Cl)Cl)cc1 [Compound 44] | 3 | < 0.1 | 0.06 | – | – | – |
| Cc1c(F)cccc1N=C(OCc1cccc(Oc2ccccc2)c1)C(C)C [Compound 73] | 25 | 0.005 | 0.025 | 0.004 | – | – |
| C=C(C)C(=Nc1ccc(C(F)(F)F)cc1)OCc1ccc(F)c(Oc2ccc(Cl)cc2)c1 [Compound 432] | < 100 | < 0.1 | 0.032 | 0.0012 | – | > 0.01 |
| CC(C)C(=Nc1ccc(F)c(Cl)c1)OCc1cccc(Oc2ccc(Br)cc2)c1 [Compound 238] | 25 | 0.0004 | 0.05 | 0.0002 | > 0.05 | > 0.01 |
| CC(C)C(=Nc1ccc(F)c(F)c1)OCc1cccc(Oc2ccc(F)cc2)c1 [Compound 60] | 8 | 0.0009 | 0.017 | 0.001 | 0.002 | 0.0075 |
| CC(C)C(=Nc1ccc(I)cc1)OCc1cccc(Oc2ccc(F)cc2)c1 [Compound 234] | 38 | 0.0013 | 0.09 | 0.00045 | 0.003 | > 0.01 |
| CC(C)C(=Nc1ccc(Br)cc1)OCc1cccc(Oc2ccc(F)cc2)c1 [Compound 226] | 16 | 0.001 | 0.1 | 0.0005 | 0.002 | 0.009 |
| CC(C)C(=Nc1ccc(F)c(Cl)c1)OCc1cccc(Oc2ccc(C#N)cc2)c1 [Compound 196] | 17 | 0.001 | > 0.1 | 0.0006 | > 0.05 | > 0.01 |

| SMILES | LC50 HF [1] [µg] | LC50 TBW C [2] [%] | LC50 TBW E [3] [%] | LC50 CL [4] [%] | LC50 LH [5] [%] | LC50 MW [6] [%] |
| --- | --- | --- | --- | --- | --- | --- |
| Cc1ccc(F)cc1N=C(OCc1cccc(Oc2ccccc2)c1)C(C)C [Compound 74] | 25 | 0.0025 | 0.025 | 0.005 | – | – |
| CC(C)C(=Nc1cc(F)cc(F)c1)OCc1cccc(Oc2ccc(F)cc2)c1 [Compound 199] | 8 | 0.003 | > 0.1 | 0.0006 | – | > 0.01 |
| CC(C)(C)C(=Nc1ccc(Cl)cc1)OCc1cccc(Oc2ccccc2)c1 [Compound 30] | > 100 | 0.01 | > 0.1 | 0.003 | > 0.05 | > 0.01 |
| COc1ccccc1N=C(OCc1cccc(Oc2ccccc2)c1)C(C)C [Compound 145] | > 100 | 0.05 | > 0.1 | 0.05 | > 0.05 | – |
| CC(C)C(=Nc1ccc2c(c1)OC(C)(C)O2)OCc1cccc(Oc2ccc(F)cc2)c1 [Compound 219] | 50 | 0.004 | 0.027 | 0.00025 | – | > 0.01 |
| CCOc1ccc(N=C(OCc2cccc(Oc3ccccc3)c2)C(Cl)Cl)cc1 [Compound 138] | 19 | 0.015 | 0.08 | 0.005 | > 0.05 | > 0.01 |
| CC(C)C(=Nc1ccc(F)c(Br)c1)OCc1cccc(Oc2ccc(F)cc2)c1 [Compound 253] | 10 | 0.0005 | > 0.1 | 0.00013 | 0.003 | > 0.01 |
| CC(C)C(=Nc1ccc(F)c(Cl)c1)OCc1cccc(Oc2ccccc2)n1 [Compound 462] | 7 | 0.0025 | 0.04 | 0.001 | 0.001 | > 0.05 |
| Cc1ccc(N=C(OCc2cccc(Oc3ccccc3)c2)C(C)C)cc1F [Compound 75] | 5 | 0.0075 | 0.01 | 0.0025 | 0.0008 | – |
| COc1ccc(N=C(OCc2cccc(Oc3ccccc3)c2)C(C)C)c(OC)c1 [Compound 146] | 40 | 0.025 | > 0.1 | 0.017 | – | – |
| Cc1cc(Cl)ccc1N=C(OCc1cccc(Oc2ccccc2)c1)C(C)C [Compound 96] | 35 | 0.0025 | 0.025 | 0.003 | – | – |
| CCC(C)C(=Nc1ccc(F)c(Cl)c1)OCc1cccc(Oc2ccc(F)cc2)c1 (stereo not drawn) [Compound 210] | 35 | 0.0015 | 0.045 | 0.00028 | – | > 0.01 |
| CC(C)(C)c1ccc(N=C(OCc2cccc(Oc3ccccc3)c2)C(Cl)Cl)cc1 [Compound 140] | > 100 | > 0.1 | > 0.1 | < 0.1 | – | – |
| C#CC(OC(=Nc1cccc(C(F)(F)F)c1)C(C)C)c1cccc(Oc2ccccc2)c1 (stereo not drawn) [Compound 519] | 60 | – | > 0.1 | 0.0037 | > 0.05 | > 0.01 |
| CC(C)C(=Nc1ccc(C(C)(C)C)cc1)OCc1cccc(Oc2ccccc2)c1 [Compound 153] | > 100 | – | 0.1 | 0.004 | 0.0005 | > 0.01 |
| CC(C)(C)C(=Nc1ccc(F)c(F)c1)OCc1coc(Cc2ccccc2)c1 [Compound 525] | > 100 | – | > 0.1 | < 0.1 | > 0.05 | > 0.01 |
| CC(C)C(=Nc1ccc2c(c1)OCO2)OCc1cccc(Oc2ccc(Cl)cn2)c1 [Compound 532] | > 100 | – | > 0.1 | < 0.1 | > 0.05 | > 0.01 |
